Measurements: patent US3974140A, “Ureidoacetamido-penicillins” (Bayer Aktiengesellschaft, priority 1970, dated 1976)

Assays:
Test in all cases: MIC, liquid medium test tube series dilution test
[1] = tested on: E. coli 14; type: cell-based; settings: E. coli 14, 24 hours, 37°C
Summary of the method: (§1)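 Tube dilution, liquid complete medium, 37°C/24 h; MIC = non-turbid tube; units/ml.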

[2] = tested on: E. coli C 165; type: cell-based; settings: E. coli C 165, 24 hours, 37°C
Summary of the method: as §1

[3] = tested on: Streptoc. faec. ATCC 9790; type: cell-based; settings: Strep. faec. (Enterococcus) ATCC 9790, 24 hours, 37°C
Summary of the method: as §1

[4] = tested on: Klebsiella K 10; type: cell-based; settings: Klebsiella K 10, 24 hours, 37°C
Summary of the method: as §1

[5] = tested on: E. coli 183/58; type: cell-based; settings: E. coli 183/58, 24 hours, 37°C
Summary of the method: as §1

[6] = tested on: E. coli A 261; type: cell-based; settings: E. coli A 261, 24 hours, 37°C
Summary of the method: as §1

[7] = tested on: Klebsiella 63; type: cell-based; settings: Klebsiella 63, 24 hours, 37°C
Summary of the method: as §1

[8] = tested on: Staph. aureus 133; type: cell-based, Staphylococcus aureus; settings: Staph. aureus 133, 24 hours, 37°C
Summary of the method: as §1

[9] = tested on: Staph. aureus 1777 E; type: cell-based, Staphylococcus aureus; settings: 24 hours, 37°C
Summary of the method: as §1

[10] = tested on: Proteus vulg. 1017; type: cell-based, Proteus vulgaris; settings: Proteus vulg. 1017, 24 hours, 37°C
Summary of the method: as §1

[11] = tested on: Proteus vulg. 3400; type: cell-based, Proteus vulgaris; settings: Proteus vulg. 3400, 24 hours, 37°C
Summary of the method: as §1

[12] = tested on: Psdm. aerug. Walter; type: cell-based, Pseudomonas aerug.; settings: 24 hours, 37°C
Summary of the method: as §1

[13] = tested on: Psdm. aerug. Bonn; type: cell-based, Pseudomonas aerug.; settings: 24 hours, 37°C
Summary of the method: as §1

MIC [6]	MIC [9]	MIC [1]	MIC [2]	MIC [3]	MIC [4]	MIC [5]	MIC [7]	MIC [8]	MIC [10]	MIC [11]	MIC [12]	MIC [13]	SMILES	further results
> 400 units/ml	400 units/ml	–	–	–	–	–	–	–	–	–	–	–	COC(=O)N(C)C(=O)N[C@@H](C(=O)N[C@@H]1C(=O)N2[C@@H]1SC(C)(C)[C@@H]2C(=O)O)c1ccccc1 [Example 10 B]	MIC ([1]; listed as 10 B): 12.5 units/ml; MIC ([1]; listed as (A) of Example 10): 12.5 units/ml; MIC ([2]; listed as 10 B): 50 units/ml; MIC ([3]; listed as 10 B): 100 units/ml; MIC ([4]; listed as 10 B): 50 units/ml; MIC ([4]; listed as (A) of Example 10): 200 units/ml; MIC ([5]; listed as 10 B): 50 units/ml; MIC ([5]; listed as (A) of Example 10): 50 units/ml; MIC ([7]; listed as 10 B): 50 units/ml; MIC ([7]; listed as (A) of Example 10): 200 units/ml; MIC ([8]; listed as 10 B): 1.6 units/ml; MIC ([8]; listed as (A) of Example 10): 1.56 units/ml; MIC ([10]; listed as 10 B): 200 units/ml; MIC ([11]; listed as 10 B): 200 units/ml; MIC ([12]; listed as 10 B): 200 units/ml; MIC ([12]; listed as (A) of Example 10): 50 units/ml; MIC ([13]; listed as 10 B): 200 units/ml; MIC ([13]; listed as (A) of Example 10): 50 units/ml
200 units/ml	12.5 units/ml	6.25 units/ml	25 units/ml	50 units/ml	50 units/ml	12.5 units/ml	50 units/ml	< 0.8 units/ml	25 units/ml	100 units/ml	100 units/ml	25 units/ml	CCN(C(=O)N[C@@H](C(=O)N[C@@H]1C(=O)N2[C@@H]1SC(C)(C)[C@@H]2C(=O)O)c1ccccc1)C(=O)c1ccccc1Cl [Example 138, Sodium D(-)-α-(3-o-chlorobenzoyl-3-ethyl-ureido)-benzylpenicillin]	–
20-100 units/ml	20-100 units/ml	0.8 units/ml	< 0.8 units/ml	4-20 units/ml	0.8-4 units/ml	< 0.8 units/ml	4-20 units/ml	< 0.8 units/ml	0.8-4 units/ml	0.8-4 units/ml	0.8-4 units/ml	0.8-4 units/ml	CN(C(=O)C=Cc1cccc([N+](=O)[O-])c1)C(=O)N[C@@H](C(=O)N[C@@H]1C(=O)N2[C@@H]1SC(C)(C)[C@@H]2C(=O)O)c1ccccc1 [Example 131, Sodium D(-)-α-(3-m-nitrocinnamoyl-3-methyl-ureido)-benzylpenicillin]	–
> 400 units/ml	200 units/ml	3,12 units/ml	12,5 units/ml	–	100 units/ml	6,25 units/ml	–	< 0,78 units/ml	–	–	12,5 units/ml	12,5 units/ml	CC1(C)S[C@@H]2[C@H](NC(=O)[C@H](NC(=O)N3CCNC3=O)c3ccccc3)C(=O)N2[C@H]1C(=O)O [Example 52, D(-)-α-[(Imidazolidin-2-on-1-yl)-carbonylamino]-benzylpenicillin]	–
400 units/ml	50 units/ml	6.25 units/ml	12.5 units/ml	100 units/ml	50 units/ml	12.5 units/ml	25 units/ml	–	12.5 units/ml	25 units/ml	50 units/ml	25 units/ml	C=CCN(C(=O)N[C@@H](C(=O)N[C@@H]1C(=O)N2[C@@H]1SC(C)(C)[C@@H]2C(=O)O)c1ccccc1)C(=O)c1ccccc1 [Example 90, Sodium D(-)-α-(3-benzoyl-3-allyl-ureido)-benzylpenicillin]	–
